Columns and labels:
[1] = molecular target: Jak2 tyrosine kinase (Homo sapiens (Human), UniProt O60674); assay: Jak2 Tyrosine Kinase Assay; assay type: biochemical
[2] = system: CD69 expression on B cells in human whole blood; assay: Whole Blood Assay of BCR-Stimulated CD69 Expression on B Cells; assay type: cell-based; conditions: B-cell
[3] = selectivity: Jak2 IC50 divided by Btk IC50

Sequence of Jak2 tyrosine kinase (O60674 whole entry): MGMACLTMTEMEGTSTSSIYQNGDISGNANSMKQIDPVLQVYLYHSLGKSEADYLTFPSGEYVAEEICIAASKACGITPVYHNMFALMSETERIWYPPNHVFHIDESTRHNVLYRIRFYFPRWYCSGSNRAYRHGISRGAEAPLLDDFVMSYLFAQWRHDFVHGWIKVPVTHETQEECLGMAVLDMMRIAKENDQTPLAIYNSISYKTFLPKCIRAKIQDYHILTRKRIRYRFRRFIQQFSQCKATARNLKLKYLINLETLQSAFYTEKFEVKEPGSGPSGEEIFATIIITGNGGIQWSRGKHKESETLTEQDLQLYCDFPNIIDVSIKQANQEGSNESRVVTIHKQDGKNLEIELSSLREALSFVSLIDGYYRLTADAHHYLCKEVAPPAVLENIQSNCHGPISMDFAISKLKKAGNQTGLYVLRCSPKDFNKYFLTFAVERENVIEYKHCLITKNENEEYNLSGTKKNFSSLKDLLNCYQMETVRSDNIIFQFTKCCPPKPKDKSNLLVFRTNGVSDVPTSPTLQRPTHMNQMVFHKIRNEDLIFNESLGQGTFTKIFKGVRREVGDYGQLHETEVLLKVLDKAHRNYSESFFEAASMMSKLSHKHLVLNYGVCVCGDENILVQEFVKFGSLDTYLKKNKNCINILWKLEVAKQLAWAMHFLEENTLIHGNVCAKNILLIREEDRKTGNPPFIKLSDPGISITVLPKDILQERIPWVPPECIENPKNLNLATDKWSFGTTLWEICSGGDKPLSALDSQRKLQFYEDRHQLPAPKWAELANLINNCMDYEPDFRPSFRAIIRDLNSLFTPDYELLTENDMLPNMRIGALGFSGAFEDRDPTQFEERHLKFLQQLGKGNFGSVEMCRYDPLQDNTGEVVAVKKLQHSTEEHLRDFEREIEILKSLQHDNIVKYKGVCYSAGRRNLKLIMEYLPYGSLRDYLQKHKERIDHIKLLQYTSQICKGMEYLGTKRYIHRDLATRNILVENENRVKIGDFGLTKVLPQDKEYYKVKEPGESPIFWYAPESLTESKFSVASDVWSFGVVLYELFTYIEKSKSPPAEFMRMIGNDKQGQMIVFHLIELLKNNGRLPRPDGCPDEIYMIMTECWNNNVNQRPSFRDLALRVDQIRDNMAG

| Ratio of Jak2/Btk IC50 values [1, 3] | IC50 [2] | Structure (SMILES) | further results |
| --- | --- | --- | --- |
| 59000 | – | Cc1c(-c2c(F)cc(C(N)=O)c3[nH]c4c(c23)CC[C@H](C(C)(C)O)C4)cccc1-n1c(=O)c2cccc(F)c2n(C)c1=O (atropisomer, axis not shown) [Example 28, 6-Fluoro-5-(R)-(3-(S)-(8-fluoro-1-methyl-2,4-dioxo-1,2-dihydroquinazolin-3(4H)-yl)-2-methylphenyl)-2-(S)-(2-hydroxypropan-2-yl)-2,3,4,9-tetrahydro-1H-carbazole-8-carboxamide] | – |
| – | 110 nM | Cc1c(-c2c(Cl)cc(C(N)=O)c3[nH]c4cc(C(C)(C)O)ccc4c23)cccc1-n1c(=O)[nH]c2c(F)cc(F)cc2c1=O (racemic) [Example 10, 3-Chloro-4-(RS)-(3-(RS)-(6,8-difluoro-2,4-dioxo-1,2-dihydroquinazolin-3(4H)-yl)-2-methylphenyl)-7-(2-hydroxypropan-2-yl)-9H-carbazole-1-carboxamide] | – |
| >950 | – | COc1ccc2c(=O)n(-c3cccc(-c4c(Cl)cc(C(N)=O)c5[nH]c6cc(C(C)(C)O)ccc6c45)c3C)c(=O)n(C)c2c1 (single isomer, unassigned) [Example 5] | – |
| 1400 | – | COc1ccc2c(=O)n(-c3cccc(-c4c(Cl)cc(C(N)=O)c5[nH]c6cc(C(C)(C)O)ccc6c45)c3C)c(=O)n(C)c2c1 (single isomer, unassigned) [Example 6] | – |
| – | 25 nM | [2H]C([2H])([2H])n1c(=O)n(-c2cccc(-c3c(F)cc(C(N)=O)c4[nH]c5cc(C(C)(C)O)ccc5c34)c2C)c(=O)c2cccc(F)c21 (single isomer, unassigned) [Example 52] | – |
| 1100 | 54 nM | Cc1c(-c2c(Cl)cc(C(N)=O)c3[nH]c4c(c23)CC[C@H](C(C)(C)O)C4)cccc1-n1c(=O)[nH]c2c(F)cc(F)cc2c1=O (single isomer, unassigned) [Example 57] | – |
| – | 260 nM | Cc1c(-c2c(F)cc(C(N)=O)c3[nH]c4c(c23)CC[C@H](C(C)(C)O)C4)cccc1-n1c(=O)[nH]c2c(F)cccc2c1=O (single isomer, unassigned) [Example 59] | – |
| >4900 | 74 nM | [2H]C([2H])([2H])n1c(=O)n(-c2cccc(-c3c(F)cc(C(N)=O)c4[nH]c5c(c34)CC[C@H](C(C)(C)O)C5)c2C)c(=O)c2cccc(F)c21 (single isomer, unassigned) [Example 62] | – |
| 24000 | 190 nM | Cc1c(-c2c(F)cc(C(N)=O)c3[nH]c4c(c23)CC[C@H](C(C)(C)O)C4)cccc1-n1c(=O)[nH]c2c(Cl)cccc2c1=O (single isomer, unassigned) [Example 63] | – |
| – | 88 nM | Cc1c(-c2c(F)cc(C(N)=O)c3[nH]c4c(c23)CC[C@H](C(C)(C)O)C4)cccc1-n1c(=O)cc2c(Cl)cccn2c1=O (single isomer, unassigned) [Example 64] | – |
| 11000 | – | Cc1c(-c2c(F)cc(C(N)=O)c3[nH]c4c(c23)CC[C@H](C(C)(C)O)C4)cccc1-n1c(=O)cc2c(F)cccn2c1=O (single isomer, unassigned) [Example 69] | – |
| – | – | Cc1c(-c2c(F)cc(C(N)=O)c3[nH]c4cc(C(C)(C)O)ccc4c23)cccc1-n1c(=O)[nH]c2c(F)cc(F)cc2c1=O (single isomer, unassigned) [Example 73] | IC50 [1]: 580 nM |
| 29 | – | Cc1nc(C(N)=O)c2[nH]c3cc(C(C)(C)O)ccc3c2c1-c1cccc(-n2cnc3ccccc3c2=O)c1C [Comparative Example 76, 7-(2-Hydroxypropan-2-yl)-3-methyl-4-(2-methyl-3-(4-oxoquinazolin-3(4H)-yl)phenyl)-9H-pyrido[3,4-b]indole-1-carboxamide, reference compound] | Ratio of Jak2/Btk IC50 values ([1]; Jak2 IC50 over Btk IC50, larger value = more selective for Btk): 29 |
| – | 130 nM | Cc1c(-c2c(Cl)cc(C(N)=O)c3[nH]c4cc(C(C)(C)O)ccc4c23)cccc1-n1c(=O)c2ccccc2n(C)c1=O [Example 3, 3-Chloro-7-(2-hydroxypropan-2-yl)-4-(R)-(2-methyl-3-(1-methyl-2,4-dioxo-1,2-dihydroquinazolin-3(4H)-yl)phenyl)-9H-carbazole-1-carboxamide] | – |
| – | 180 nM | Cc1c(-c2c(Cl)cc(C(N)=O)c3[nH]c4cc(C(C)(C)O)ccc4c23)cccc1-n1c(=O)c2cccc(C)c2n(C)c1=O [Example 4, 3-Chloro-4-(R)-(3-(1,8-dimethyl-2,4-dioxo-1,2-dihydroquinazolin-3(4H)-yl)-2-methylphenyl)-7-(2-hydroxypropan-2-yl)-9H-carbazole-1-carboxamide] | – |
| – | 130 nM | COc1cccc2c(=O)n(-c3cccc(-c4c(Cl)cc(C(N)=O)c5[nH]c6cc(C(C)(C)O)ccc6c45)c3C)c(=O)n(C)c12 [Example 7, 3-Chloro-7-(2-hydroxypropan-2-yl)-4-(R)-(3-(8-methoxy-1-methyl-2,4-dioxo-1,2-dihydroquinazolin-3(4H)-yl)-2-methylphenyl)-9H-carbazole-1-carboxamide] | – |
| – | 75 nM | Cc1c(-c2c(Cl)cc(C(N)=O)c3[nH]c4cc(C(C)(C)O)ccc4c23)cccc1-n1c(=O)c2cc(F)ccc2n(C)c1=O [Example 8, 3-Chloro-4-(R)-(3-(6-fluoro-1-methyl-2,4-dioxo-1,2-dihydroquinazolin-3(4H)-yl)-2-methylphenyl)-7-(2-hydroxypropan-2-yl)-9H-carbazole-1-carboxamide] | – |
| – | 76 nM | Cc1c(-c2c(Cl)cc(C(N)=O)c3[nH]c4cc(C(C)(C)O)ccc4c23)cccc1-n1c(=O)c2ccc(F)cc2n(C)c1=O [Example 9, 3-Chloro-4-(R)-(3-(7-fluoro-1-methyl-2,4-dioxo-1,2-dihydroquinazolin-3(4H)-yl)-2-methylphenyl)-7-(2-hydroxypropan-2-yl)-9H-carbazole-1-carboxamide] | – |
| 2400 | – | Cc1c(-c2c(C#N)cc(C(N)=O)c3[nH]c4cc(C(C)(C)O)ccc4c23)cccc1-n1c(=O)c2cccc(F)c2n(C)c1=O [Example 15, 3-Cyano-4-(S)-(3-(8-fluoro-1-methyl-2,4-dioxo-1,2-dihydroquinazolin-3(4H)-yl)-2-methylphenyl)-7-(2-hydroxypropan-2-yl)-9H-carbazole-1-carboxamide] | – |
| – | 200 nM | Cc1c(-c2c(Cl)cc(C(N)=O)c3[nH]c4c(c23)CC[C@H](C(C)(C)O)C4)cccc1-n1c(=O)c2cccc(F)c2n(C)c1=O [Example 25, 6-Chloro-5-(3-(8-fluoro-1-methyl-2,4-dioxo-1,2-dihydroquinazolin-3(4H)-yl)-2-methylphenyl)-2-(S)-(2-hydroxypropan-2-yl)-2,3,4,9-tetrahydro-1H-carbazole-8-carboxamide] | – |
| 440 | – | Cc1c(-c2c(Cl)cc(C(N)=O)c3[nH]c4cc(C(C)(C)O)ccc4c23)cccc1-n1c(=O)cc2c(F)cccn2c1=O [Example 34, 3-Chloro-4-(3-(5-fluoro-1,3-dioxo-1H-pyrido[1,2-c]pyrimidin-2(3H)-yl)-2-methylphenyl)-7-(2-hydroxypropan-2-yl)-9H-carbazole-1-carboxamide] | – |
| 3200 | – | Cc1c(-c2c(Cl)cc(C(N)=O)c3[nH]c4cc(C(C)(C)O)ccc4c23)cccc1-n1c(=O)cc2c(F)cccn2c1=O [Example 35, 3-Chloro-4-(R)-(3-(5-fluoro-1,3-dioxo-1H-pyrido[1,2-c]pyrimidin-2(3H)-yl)-2-methylphenyl)-7-(2-hydroxypropan-2-yl)-9H-carbazole-1-carboxamide] | – |
| 1600 | – | Cc1c(-c2c(Cl)cc(C(N)=O)c3[nH]c4cc(C(C)(C)O)ccc4c23)cccc1-n1c(=O)cc2c(F)cccn2c1=O [Example 36, 3-Chloro-4-(R)-(3-(5-fluoro-1,3-dioxo-1H-pyrido[1,2-c]pyrimidin-2(3H)-yl)-2-methylphenyl)-7-(2-hydroxypropan-2-yl)-9H-carbazole-1-carboxamide] | – |
| 880 | – | Cc1c(-c2c(Cl)cc(C(N)=O)c3[nH]c4cc(C(C)(C)O)ccc4c23)cccc1-n1c(=O)cc2sccn2c1=O [Example 38, 3-Chloro-4-(R)-(3-(5,7-dioxo-5H-thiazolo[3,2-c]pyrimidin-6(7H)-yl)-2-methylphenyl)-7-(2-hydroxypropan-2-yl)-9H-carbazole-1-carboxamide] | – |
| 1200 | – | Cc1c(-c2c(Cl)cc(C(N)=O)c3[nH]c4cc(C(C)(C)O)ccc4c23)cccc1-n1c(=O)cc2sccn2c1=O [Example 39, 3-Chloro-4-(R)-(3-(5,7-dioxo-5H-thiazolo[3,2-c]pyrimidin-6(7H)-yl)-2-methylphenyl)-7-(2-hydroxypropan-2-yl)-9H-carbazole-1-carboxamide] | – |
| 1800 | – | Cc1c(-c2c(F)cc(C(N)=O)c3[nH]c4cc(C(C)(C)O)ccc4c23)cccc1-n1c(=O)cc2c(F)cccn2c1=O [Example 40, 3-Fluoro-4-(R)-(3-(5-fluoro-1,3-dioxo-1H-pyrido[1,2-c]pyrimidin-2(3H)-yl)-2-methylphenyl)-7-(2-hydroxypropan-2-yl)-9H-carbazole-1-carboxamide] | – |
| 4000 | – | Cc1c(-c2c(F)cc(C(N)=O)c3[nH]c4cc(C(C)(C)O)ccc4c23)cccc1-n1c(=O)cc2c(F)cccn2c1=O [Example 41, 3-Fluoro-4-(R)-(3-(5-fluoro-1,3-dioxo-1H-pyrido[1,2-c]pyrimidin-2(3H)-yl)-2-methylphenyl)-7-(2-hydroxypropan-2-yl)-9H-carbazole-1-carboxamide] | – |
| – | 88 nM | Cn1c(=O)n(-c2cccc(-c3c(F)cc(C(N)=O)c4[nH]c5cc(C(C)(C)O)ccc5c34)c2Cl)c(=O)c2cccc(F)c21 [Example 46, 4-(2-Chloro-3-(8-fluoro-1-methyl-2,4-dioxo-1,2-dihydroquinazolin-3(4H)-yl)phenyl)-3-fluoro-7-(2-hydroxypropan-2-yl)-9H-carbazole-1-carboxamide] | – |
| – | 27 nM | CC(C)(O)c1ccc2c(c1)[nH]c1c(C(N)=O)cc(Cl)c(-c3cccc(-n4c(=O)[nH]c5c(F)cccc5c4=O)c3Cl)c12 [Example 47, 3-Chloro-4-(R)-(2-chloro-3-(8-fluoro-2,4-dioxo-1,2-dihydroquinazolin-3(4H)-yl)phenyl)-7-(2-hydroxypropan-2-yl)-9H-carbazole-1-carboxamide] | – |

From patent US10106559B2, “Substituted tetrahydrocarbazole and carbazole carboxamide compounds” (BRISTOL-MYERS SQUIBB COMPANY, priority 2013, dated 2018)
